Assay results as given in patent US20220378707A1, “1-(((2S,3S,4S)-3-ETHYL-4-FLUORO-5-OXOPYRROLIDIN-2-YL)METHOXY)-7-METHOXYISOQUINOLINE-6-CARBOXAMIDE COMBINATIONS AND ORAL DOSAGE FORMS” (Pfizer Inc., priority 2019, published 2022).
“Also recorded” adds a separate entry of the source.

Legend:
[1] = system: human primary cell-based systems; experiment: BioMAP panel of 12 systems; settings: for Number of annotated readouts with activity / Overt cytotoxicity on primary human cell types: 12 tissue and disease models; for Immunomodulatory activities: Decreased Activity / Inflammation-related activities: Decreased Activity: PF-06651600 200-5400 nM
Excerpt: (§1) The BioMAP systems consist of human primary cell-based systems designed to model different aspects of the human body in an in vitro format. The 12 systems tested characterized the test compounds across a broad set of systems modeling various human disease states. BioMAP systems were constructed with one or more primary cell types from healthy human donors, with stimuli (such as cytokines or growth factors) added to capture relevant signaling networks that naturally occur in human tissue or pathological conditions. Vascular biology was modeled in both a Th1 (3C system) and a Th2 (4H system) inflammatory environment, as well as in a Th1 inflammatory state specific to arterial smooth muscle cells (CASM3C system). Additional systems recapitulated aspects of the systemic immune response that included monocyte-driven Th1 inflammation (LPS system) or T cell stimulation (SAg system), chronic Th1 inflammation driven by macrophage activation (IMphg system) and the T cell-dependent activation of B cells that occurs in germinal centers (BT system). The BE3C system (Th1) and the BF4T system (Th2) represented airway inflammation of the lung, while the MyoF system modeled myofibroblast-lung tissue remodeling. Lastly, skin biology was addressed in the KF3CT system modeled Th1 cutaneous inflammation and the HDF3CGF system modeled wound healing.
(§2) All cells were from a pool of multiple donors (n=2-6), commercially purchased and handled according to the recommendations of the manufacturers. Human blood derived CD14+ monocytes were differentiated into macrophages in vitro before being added to the IMphg system. Abbreviations were used as follows: human umbilical vein endothelial cells (HUVEC), peripheral blood mononuclear cells (PBMC), human neonatal dermal fibroblasts (HDFn), B cell receptor (BCR), T cell receptor (TCR) and toll-like receptor (TLR). Cell types and stimuli used in each system were as follows:
(§3) 3C system [HUVEC+(IL-1β, TNFα and IFNγ)]; 4H system [HUVEC+(IL-4 and histamine)]; LPS system [PBMC and HUVEC+LPS (TLR4 ligand)]; SAg system [PBMC and HUVEC+T cell receptor (TCR) ligands]; BT system [CD19+B cells and PBMC+(α-IgM and TCR ligands)]; BF4T system [bronchial epithelial cells and HDFn+(TNFα and IL-4)]; BE3C system [bronchial epithelial cells+(IL-1p, TNFα and IFNγ)]; CASM3C system [coronary artery smooth muscle cells+(IL-1p, TNFα and IFNγ)]; HDF3CGF system [HDFn+(IL-1β, TNFα, IFNγ, EGF, bFGF and PDGF-BB)]; KF3CT system [keratinocytes and HDFn+(IL-1β, TNFα and IFNγ)]; MyoF system [differentiated lung myofibroblasts+(TNFα and TGFβ)]; and IMphg system [HUVEC and M1 macrophages+Zymosan (TLR2 ligand)].
(§4) Systems were derived from either single cell types or co-culture systems. Adherent cell types were cultured in 96 or 384-well plates until confluence, followed by the addition of PBMC (SAg and LPS systems). The BT system consisted of CD19+B cells co-cultured with PBMC and stimulated with a BCR activator and low levels of TCR stimulation. Test agents were prepared in DMSO (final concentration <0.1%) and were added 1 hour before stimulation, and remained in culture for 24 hours or as otherwise indicated (48-hrs, MyoF system; 72-hrs, BT system (soluble readouts); 168-hrs, BT system (secreted IgG)). Each plate contained drug controls (e.g., legacy control test agent colchicine at 1.1 μM), negative controls (e.g., non-stimulated conditions) and vehicle controls (e.g., 0.1% DMSO) appropriate for each system. Direct ELISA was used to measure biomarker levels of cell-associated and cell membrane targets. Soluble factors from supernatants were quantified using either HTRF® detection, bead-based multiplex immunoassay or capture ELISA. Overt adverse effects of test agents on cell proliferation and viability (cytotoxicity) were detected by sulforhodamine B (SRB) staining, for adherent cells, and alamarBlue® reduction for cells in suspension. […]

[2] = system: CD19+B cells and PBMC+(α-IgM and TCR ligands); experiment: BioMAP BT system; type: cell-based, human; settings: for Inhibition of biomarker readouts in the BT system / Increased biomarker readouts in the BT system: T cell dependent B cell activation; for Inhibition of biomarker readouts in the BT system: concentrations of FIGS. 12-14; for Increased biomarker readouts in the BT system: tofacitinib 37-1000 nM
Excerpt: as §1, §2, §3, §4

[3] = system: HUVEC+(IL-1β, TNFα and IFNγ); experiment: BioMAP 3C system; type: cell-based, human; settings: agent alone; PF-06650833 19, 56, 170, 500 nM; tofacitinib 37, 110, 330, 1000 nM
Excerpt: (§5) The BioMAP systems consist of human primary cell-based systems designed to model different aspects of the human body in an in vitro format. The 12 systems tested characterized the test compounds across a broad set of systems modeling various human disease states. BioMAP systems were constructed with one or more primary cell types from healthy human donors, with stimuli (such as cytokines or growth factors) added to capture relevant signaling networks that naturally occur in human tissue or pathological conditions. Vascular biology was modeled in both a Th1 (3C system) and a Th2 (4H system) inflammatory environment, as well as in a Th1 inflammatory state specific to arterial smooth muscle cells (CASM3C system). […]
(§6) Systems were derived from either single cell types or co-culture systems. […] Test agents were prepared in DMSO (final concentration <0.1%) and were added 1 hour before stimulation, and remained in culture for 24 hours or as otherwise indicated (48-hrs, MyoF system; 72-hrs, BT system (soluble readouts); 168-hrs, BT system (secreted IgG)). […] Soluble factors from supernatants were quantified using either HTRF® detection, bead-based multiplex immunoassay or capture ELISA. Overt adverse effects of test agents on cell proliferation and viability (cytotoxicity) were detected by sulforhodamine B (SRB) staining, for adherent cells, and alamarBlue® reduction for cells in suspension.

[4] = system: PBMC and HUVEC+T cell receptor (TCR) ligands; experiment: BioMAP SAg system; type: cell-based, human; settings: for Inhibition of biomarker readouts in the SAg system: T cell-driven Th1 vascular inflammation, concentrations of FIGS. 12-16
Excerpt: as §1, §2, §3
Systems were derived from either single cell types or co-culture systems. Adherent cell types were cultured in 96 or 384-well plates until confluence, followed by the addition of PBMC (SAg and LPS systems). The BT system consisted of CD19+B cells co-cultured with PBMC and stimulated with a BCR activator and low levels of TCR stimulation. Test agents were prepared in DMSO (final concentration <0.1%) and were added 1 hour before stimulation, and remained in culture for 24 hours or as otherwise indicated (48-hrs, MyoF system; 72-hrs, BT system (soluble readouts); 168-hrs, BT system (secreted IgG)). Each plate contained drug controls (e.g., legacy control test agent colchicine at 1.1 μM), negative controls (e.g., non-stimulated conditions) and vehicle controls (e.g., 0.1% DMSO) appropriate for each system. Direct ELISA was used to measure biomarker levels of cell-associated and cell membrane targets. Soluble factors from supernatants were quantified using either HTRF® detection, bead-based multiplex immunoassay or capture ELISA. Overt adverse effects of test agents on cell proliferation and viability (cytotoxicity) were detected by sulforhodamine B (SRB) staining, for adherent cells, and alamarBlue® reduction for cells in suspension.

[5] = system: PBMC and HUVEC+LPS (TLR4 ligand); experiment: BioMAP LPS system; type: cell-based, human; settings: monocyte-driven Th1 inflammation; for Inhibition of biomarker readouts in the LPS system: concentrations of FIGS. 12-14; for Increased biomarker readouts in the LPS system: tofacitinib 37-1000 nM
Excerpt: as §1, §2, §3, §4

[6] = system: HDFn+(IL-1β, TNFα, IFNγ, EGF, bFGF and PDGF-BB); experiment: BioMAP HDF3CGF system; type: cell-based, human; settings: for Inhibition of biomarker readouts in the HDF3CGF system: wound healing, Th1-type inflammation, concentrations of FIGS. 12-16
Excerpt: as §1, §2, §3
as §6, with “systems. Adherent cell types were cultured in 96 or 384-well plates until confluence, followed by the addition of PBMC (SAg and LPS systems).” for “systems.”

[7] = system: keratinocytes and HDFn+(IL-1β, TNFα and IFNγ); experiment: BioMAP KF3CT system; type: cell-based, human; settings: Th1 cutaneous inflammation; tofacitinib 37-1000 nM
Excerpt: as §5, §6

[8] = PF-06650833 19-500 nM, tofacitinib 37-1000 nM
[9] = BioMAP profile, PF-06650833 19-500 nM, tofacitinib 37-1000 nM
[10] = listed as 1-(((2S,3S,4S)-3-Ethyl-4-fluoro-5-oxopyrrolidin-2-yl)methoxy)-7-methoxyisoquinol
[11] = listed as 1-(((2S,3S,4S)-3-ethyl-4-fluoro-5-oxopyrrolidin-2-yl)methoxy)-7-methoxyisoquinol
[12] = BioMAP profile, tofacitinib 37-1000 nM

Structure (SMILES): CC[C@@H]1[C@H](F)C(=O)N[C@@H]1COc1nccc2cc(C(N)=O)c(OC)cc12 [PF-06650833, 1-(((2S,3S,4S)-3-Ethyl-4-fluoro-5-oxopyrrolidin-2-yl)methoxy)-7-methoxyisoquinoline-6-carboxamide]
- Number of annotated readouts with activity [1, 8]: 14
- Overt cytotoxicity on primary human cell types [1, 8]: no evidence of overt cytotoxicity
- Immunomodulatory activities: Decreased Activity [1, 9]: decreased CD40, CD69, M-CSF, secreted IL-17F; also recorded: CD40, CD69, M-CSF, *sIL-17F
- Inflammation-related activities: Decreased Activity [1, 9]: decreased E-selectin, MCP-1, VCAM-1, IL-6, IL-8, IL-1α, secreted TNFα, secreted PGE2; also recorded: MCP-1, VCAM-1, E-selectin, IL-6, IL-8, IL-1α, *sTNFα, *sPGE2
- Additional activities in the BioMAP systems ([1]; PF-06650833 19-500 nM): modest effects in BT and CASM3C systems and concentration-related decreases in secreted IL-17F and inhibition of secreted TNFα and IL-6 at the higher two concentrations only
- Antiproliferative effect on primary cell types [1, 8]: no antiproliferative effect
- Inhibition of biomarker readouts in the BT system [2, 10]: little effect; also recorded: modest inhibition of IL-6 and sIL-17F
- Inhibition of biomarker readouts in the BT system [2, 11]: sIL-17F and sTNFα
- Activity in the 3C system [3]: no activity
- Inhibition of biomarker readouts in the SAg system [4]: no activity
- Inhibition of biomarker readouts in the LPS system [5, 10]: primarily active across all tested concentrations; also recorded: MCP-1, VCAM-1, E-selectin, IL-8, IL-1a, sTNFa, sPGE2, CD40, CD69, M-CSF, and TF; also recorded: strongly inhibited activation responses
- Inhibition of biomarker readouts in the LPS system [5, 11]: PGE2, TNFα, IL-1α, and MCP1; also recorded: strongly and selectively inhibited monocyte activation responses; also recorded: MCP-1, VCAM-1, CD40, E-selectin, CD69, IL-8, IL-1α, M-CSF, sPGE2, and sTNFα
- MIG, Log10 molar ratio in the HDF3CGF system ([6]; PF-06650833 at 170 nM alone): −0.04121
- Inhibition of biomarker readouts in the HDF3CGF system [6]: modest inhibition VCAM-1, Col-III, and TIMP2

Structure (SMILES): C[C@@H]1CCN(C(=O)CC#N)C[C@@H]1N(C)c1ncnc2[nH]ccc12 [tofacitinib, 3-((3R,4R)-4-Methyl-3-(methyl(7H-pyrrolo[2,3-d]pyrimidin-4-yl)amino)piperidin-1-yl)-3-oxopropanenitrile]
- Inhibition of biomarker readouts in the KF3CT system [7]: MCP-1
- Number of annotated readouts with activity [1, 8]: 21
- Overt cytotoxicity on primary human cell types [1, 8]: no evidence of overt cytotoxicity
- Immunomodulatory activities: Decreased Activity [1, 9]: decreased secreted IgG, CD38, secreted IL-6, CD69, secreted IL-17F; also recorded: *sIL-6, *sIL-17F; also recorded: CD38, CD69, *sIgG,
- Inflammation-related activities: Decreased Activity [1, 9]: decreased Eotaxin 3, MCP-1, VCAM-1, I-TAC, MIG, P-selectin; also recorded: MCP-1, Eot3,; also recorded: ITAC, MIG
- Immunomodulatory activities: Increased Activity [1, 12]: increased secreted IL-2; also recorded: *sIL-2
- Inflammation-related activities: Increased Activity [1, 12]: increased IL-1α, secreted PGE2; also recorded: *sPGE2
- Inflammation-related activities: Modulated Activity [1, 12]: modulated secreted TNFα; also recorded: *sTNFα
- Tissue remodeling activities: Increased Activity [1, 12]: increased MMP-9 and MMP9
- Antiproliferative effect on primary cell types [1, 8]: selectively antiproliferative to T cells
- Cytostatic effect on B cells, vascular cell types or fibroblasts ([1]; tofacitinib 37-1000 nM): no cytostatic effect
- Inhibition of biomarker readouts in the BT system [2]: sIgG, sIL-17F, sIL-2, IL-6, and sTNFα; also recorded: strongly inhibited responses
- Inhibition of biomarker readouts in the BT system ([2]; listed as Tofacitinib): active over all tested concentrations; also recorded: sIgG, sIL-17F, sIL-6, and sTNFα
- Increased biomarker readouts in the BT system [2]: increase in secreted IL-2
- Increased biomarker readouts in the BT system ([2]; listed as Tofacitinib): sIL-2
- B cell proliferation in the BT system ([2]; concentrations of FIGS. 13-14): B cell anti-proliferative activity
- Activity in the 3C system [3]: no activity
- Inhibition of biomarker readouts in the SAg system [4]: CD38 and CD69 and modestly inhibited CD69
- Inhibition of biomarker readouts in the SAg system ([4]; listed as Tofacitinib): CD38 and CD69
- Proliferation of T cells in the SAg system ([4]; concentrations of FIGS. 13-14): antiproliferative activity
- Increased biomarker readouts in the LPS system [5]: increased levels of IL-1α, secreted PGE2 and secreted TNFα; also recorded: stimulated production of IL-1α, sPGE2 and sTNFα
- Increased biomarker readouts in the LPS system ([5]; listed as Tofacitinib): IL-1α, sPEG2, and sTNFα
- Inhibition of biomarker readouts in the HDF3CGF system [6]: ITAC and VCAM-1
- Inhibition of biomarker readouts in the HDF3CGF system ([6]; listed as Tofacitinib): VCAM-1 and ITAC
